Measured values reported in US4015974A, “Amido phosphorothiolates” (priority 1972, dated 1977).
Converted amounts (≈) assume the structure as drawn.

Key:
Type in all cases: in vivo
[1] = test system: nematode; assay: Effect on nematode (Table 7); set-up: tested at 500 ppm; conditions: 500 p.p.m., 24 hours
Experimental: 0.5 ml. of a nematode-containing aqueous solution separated from food according to Baermann's method was placed in a test tube with ground stopper containing 0.5 ml. of an aqueous dilute solution of each emulsifiable concentrates of the present compounds. The concentration of the active ingredient in the mixture was adjusted to 500 p.p.m. After 24 hours, the death and alive were observed microscopically to calculate the mortality.

[2] = test system: barnyard grass (Echinochloa crus-galli); assay: Pre-emergence application, herbicidal effect on barnyard grass (Table 1); set-up: key: 0: not damaged; 5: completely killed; conditions: 20 days after application, score 0-5
Outline: (§1)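 Soil treatment after sowing, pre-emergence; wettable powder formulations diluted with water. Greenhouse, 20 d. Score 0 = no damage, 5 = complete kill.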

[3] = test system: carmine mite (Tetranychus telarius); assay: Lethal effect on carmine mite, degree of damage on kidney beans (Table 4); set-up: key: -: damage is hardly increased.; +: damage is slightly increased.; ++: damage is fairly increased.; +++: damage is heavily increased; conditions: 25% wettable powder, 200 fold dilute solution, another week after application
Excerpt: About 50 carmine mite adults were made parasitic on leaves of potted kidney beans at a 2-leaves stage which had elapsed 10 days after swing. After a week, the present compounds of a 25% wettable powder type were each applied in the form of a 200 fold dilute solution.

[4] = test system: common lambsquarter (Chenopodium album); assay: Pre-emergence application, herbicidal effect on common lambsquarter (Table 1); set-up: key: 0: not damaged; 5: completely killed; conditions: 20 days after application, score 0-5
Outline: as §1

[5] = test system: redroot pigweed (Amaranthus retroflexus); assay: Pre-emergence application, herbicidal effect on redroot pigweed (Table 1); set-up: key: 0: not damaged; 5: completely killed; conditions: 20 days after application, score 0-5
Outline: as §1

[6] = test system: tobacco cut worm (Spondoptera litura); assay: Lethal effect on tobacco cut worm (Table 5); conditions: tobacco cutworm, larvae on chinese cabbage leaves, 48 h
Experimental: The present compounds of an emulsifiable concentrate type were applied to leaves of chinese cabbage in the form of an 1000 fold dilute solution. After air-drying, third to fourth instar larvae of tobacco cut worm were released and after 48 hours the death and alive were observed.

[7] = test system: large crabgrass (Digitaria sanguinalis); assay: Pre-emergence application, herbicidal effect on large crabgrass (Table 1); set-up: key: 0: not damaged; 5: completely killed; conditions: 20 days after application, score 0-5
Outline: as §1

[8] = test system: common purslane (Portulaca oleracea); assay: Pre-emergence application, herbicidal effect on common purslane (Table 1); set-up: key: 0: not damaged; 5: completely killed; conditions: 20 days after application, score 0-5
Outline: as §1

[9] = test system: rice; assay: Water application, phytotoxicity on rice (Table 2); set-up: key: 0: no effect; 1: very slightly affected; 2: slightly affected; 3: moderately affected; 4: considerably affected; 5: completely killed; conditions: 25 days, score 0-5
Outline: (§2)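 Paddy-soil pots flooded to paddy conditions; rice transplanted at 3-leaf stage, barnyard grass sown, broad-leaved weeds germinating spontaneously. Test compounds applied as wettable powder to soil under flooded water. Herbicidal effect and rice phytotoxicity scored 0–5 at 25 days after application.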

[10] = test system: radish; assay: Pre-emergence application, herbicidal effect on radish (Table 1); set-up: key: 0: not damaged; 5: completely killed; conditions: 20 days after application, score 0-5
Outline: as §1

[11] = test system: broad-leaved weeds, e.g., monochoria, false pimpernel and toothcup; assay: Water application, herbicidal effect on broad-leaved weeds (Table 2); set-up: key: 0: not damaged; 5: completely killed; conditions: 25 days, score 0-5
Outline: as §2

[12] = test system: barnyard grass (Echinochloa crus-galli); assay: Water application, herbicidal effect on barnyard grass (Table 2); set-up: key: 0: not damaged; 5: completely killed; conditions: 25 days, score 0-5
Outline: as §2

[13] = test system: diamond-back moth (Plutella maculipennis); assay: Field test, diamond-back moth on cabbage (Table 8); conditions: 3% dust, 5 kg./10 a., after 7 days, on 20 cabbages
Excerpt: (§3) A 3% dust of each compound of the present invention was applied, in a proportion of 5 kg./10 a., to the field of cabbage where a large number of tobacco cut worm and diamond-back moth were generated, After 7 days, 20 cabbages were pulled out and the number of insects thereon were checked.

[14] = test system: tobacco cut worm (Spodoptera litura); assay: Field test, tobacco cut worm on cabbage (Table 8); conditions: 3% dust, 5 kg./10 a., after 7 days, on 20 cabbages
Excerpt: as §3

[15] = test system: rice stem borer (Chilo suppressalis); assay: Lethal effect on rice stem borer (Table 6); conditions: 50 % emulsifiable concentrate, 1000 fold dilute solution, 4 days after application
Excerpt: Eggs just before hatch of the rice stem borer were applied in a ratio of 100/pot near the root of rice plants grown up into the tillering stage in an […] Wagner's pot. After eggs were hatched and the larvae entered into stems of rice plants, an 1000 fold dilute solution of each 50 % emulsifiable concentrates of the present compounds was applied by means of a turn table.

[16] = test system: carmine mite (Tetranychus telavius); assay: Lethal effect on carmine mite, leaf dipping (Table 3); conditions: foliar, 48 h
Experimental: A large number of carmine mite adult were made parasitic on leaves of potted kidney beans at a 2-leaves stage which had elapsed 10 days after sowing. The leaves of kidney bean on which carmine mites had been made parasitic were dipped for 1 minute in each aqueous solution of the present compounds of wettable powder type. Water was given to the leaves not to kill them, and after 48 hours the death and alive were observed microscopically to calculate the mortality. Values of LC50 were obtained from the mortality.

Row | SMILES | Herbicidal effect, barnyard grass ([2]; 10 g./a.) | Herbicidal effect, barnyard grass ([2]; 20 g./a.) | Herbicidal effect, barnyard grass ([2]; 40 g./a.) | Herbicidal effect, common lambsquarter ([4]; 10 g./a.) | Herbicidal effect, common lambsquarter ([4]; 20 g./a.) | Herbicidal effect, common lambsquarter ([4]; 40 g./a.) | Herbicidal effect, redroot pigweed ([5]; 10 g./a.) | Herbicidal effect, redroot pigweed ([5]; 20 g./a.) | Herbicidal effect, redroot pigweed ([5]; 40 g./a.) | Herbicidal effect, large crabgrass ([7]; 10 g./a.) | Herbicidal effect, large crabgrass ([7]; 20 g./a.) | Herbicidal effect, large crabgrass ([7]; 40 g./a.) | Herbicidal effect, common purslane ([8]; 10 g./a.) | Herbicidal effect, common purslane ([8]; 20 g./a.) | Herbicidal effect, common purslane ([8]; 40 g./a.) | Phytotoxicity on rice ([9]; 10 g/a) | Phytotoxicity on rice ([9]; 20 g/a) | Phytotoxicity on rice ([9]; 40 g/a) | Herbicidal effect, radish ([10]; 10 g./a.) | Herbicidal effect, radish ([10]; 20 g./a.) | further results
1 | CCOP(=O)(SCC(=O)N1CCCCC1C)SCc1ccc(Cl)cc1 (stereo not drawn) [Compound 49, O-ethyl-S-(4-chlorobenzyl)-S-(2-methylpiperidinocarbamoylmethyl)phosphorodithiolate] | 5 | 5 | 5 | 4 | 4 | 5 | 3 | 4 | 5 | 5 | 5 | 5 | 3 | 4 | 5 | 0 | 0 | 1 | 0 | 0 | Mortality [1]: 100%; Degree of damage [3]: -; Mortality [6]: 75.0%; Herbicidal effect, radish ([10]; 40 g./a.): 0; Herbicidal effects, broad-leaved weeds ([11]; 10 g/a): 5; Herbicidal effects, broad-leaved weeds ([11]; 20 g/a): 5; Herbicidal effects, broad-leaved weeds ([11]; 40 g/a): 5; Herbicidal effects, barnyard grass ([12]; 10 g/a): 5; Herbicidal effects, barnyard grass ([12]; 20 g/a): 5; Herbicidal effects, barnyard grass ([12]; 40 g/a): 5
2 | CCOP(=O)(SCC(=O)N1CCCCC1CC)SCc1ccc(CC)cc1 (stereo not shown) [Compound 58] | 4 | 5 | 5 | 3 | 4 | 4 | 3 | 4 | 5 | 5 | 5 | 5 | 3 | 4 | 5 | 0 | 0 | 0 | 0 | 0 | Mortality [6]: 72.0%; Herbicidal effect, radish ([10]; 40 g./a.): 0; Herbicidal effects, broad-leaved weeds ([11]; 10 g/a): 5; Herbicidal effects, broad-leaved weeds ([11]; 20 g/a): 5; Herbicidal effects, broad-leaved weeds ([11]; 40 g/a): 5; Herbicidal effects, barnyard grass ([12]; 10 g/a): 5; Herbicidal effects, barnyard grass ([12]; 20 g/a): 5; Herbicidal effects, barnyard grass ([12]; 40 g/a): 5
3 | COP(=O)(OC)C(O)C(Cl)(Cl)Cl (stereo not shown) [Bipterex, reference compound] |  |  |  |  |  |  |  |  |  |  |  |  |  |  |  |  |  |  |  |  | Number of insects, diamond-back moth [13]: 49; Number of insects, tobacco cut worm [14]: 19
4 | CCOP(=O)(SCC(=O)N1CCCCC1C)SC(C)CC (stereo not shown) [Compound 5] | 5 | 5 | 5 | 5 | 5 | 5 | 5 | 5 | 5 | 5 | 5 | 5 | 5 | 5 | 5 | 0 | 0 | 0 | 0 | 0 | Mortality [1]: 100%; Mortality [15]: 88.9%; LC50 [16]: 7.9 µg/mL (≈ 22.3 µM); Mortality [6]: 70.0%; Herbicidal effect, radish ([10]; 40 g./a.): 0; Herbicidal effects, broad-leaved weeds ([11]; 10 g/a): 5; Herbicidal effects, broad-leaved weeds ([11]; 20 g/a): 5; Herbicidal effects, broad-leaved weeds ([11]; 40 g/a): 5; Herbicidal effects, barnyard grass ([12]; 10 g/a): 5; Herbicidal effects, barnyard grass ([12]; 20 g/a): 5; Herbicidal effects, barnyard grass ([12]; 40 g/a): 5
5 | CCOP(=O)(SCC(=O)N1CCCCC1C)SCc1ccc(Cl)c(Cl)c1 (stereo not shown) [Compound 61] |  |  |  |  |  |  |  |  |  |  |  |  |  |  |  |  |  |  |  |  | Degree of damage [3]: -
6 | CCOP(=O)(SCC(=O)N1CCCCC1C)SCc1ccc(C(C)(C)C)cc1 (stereo not shown) [Compound 50] | 5 | 5 | 5 | 5 | 5 | 5 | 5 | 5 | 5 | 5 | 5 | 5 | 5 | 5 | 5 | 0 | 0 | 1 | 0 | 1 | Mortality [1]: 100%; Mortality [6]: 81.2%; Herbicidal effect, radish ([10]; 40 g./a.): 2; Herbicidal effects, broad-leaved weeds ([11]; 10 g/a): 5; Herbicidal effects, broad-leaved weeds ([11]; 20 g/a): 5; Herbicidal effects, broad-leaved weeds ([11]; 40 g/a): 5; Herbicidal effects, barnyard grass ([12]; 10 g/a): 5; Herbicidal effects, barnyard grass ([12]; 20 g/a): 5; Herbicidal effects, barnyard grass ([12]; 40 g/a): 5
7 | CCOP(=O)(SCC(=O)N1CCCCC1C)SCc1ccc(CC)cc1 (stereo not shown) [Compound 53] | 4 | 5 | 5 | 3 | 3 | 4 | 3 | 4 | 5 | 5 | 5 | 5 | 3 | 3 | 5 | 0 | 0 | 0 | 0 | 0 | Mortality [1]: 83.6%; Degree of damage [3]: -~+; Herbicidal effect, radish ([10]; 40 g./a.): 0; Herbicidal effects, broad-leaved weeds ([11]; 10 g/a): 5; Herbicidal effects, broad-leaved weeds ([11]; 20 g/a): 5; Herbicidal effects, broad-leaved weeds ([11]; 40 g/a): 5; Herbicidal effects, barnyard grass ([12]; 10 g/a): 5; Herbicidal effects, barnyard grass ([12]; 20 g/a): 5; Herbicidal effects, barnyard grass ([12]; 40 g/a): 5
8 | CCOP(=O)(SCCc1ccc(Cl)cc1)SCC(=O)N1CCCCC1C (stereo not shown) [Compound 60] |  |  |  |  |  |  |  |  |  |  |  |  |  |  |  |  |  |  |  |  | Degree of damage [3]: -
